In patent publication US20060063736A1, “Compositions and methods for inhibiting mucin-type O-linked glycosylation” (priority 2004, published 2006):

How the values were obtained:
[1] = target: T1, α1-3galactosyltransferase (α1-3GalT) (Sus scrofa, UniProt P50127); experiment: Continuous assay for α1-3GalT activity; format: biochemical, porcine; conditions: for inhibitory activity against α1-3GalT: highest concentration tested (500 μM)
T1 construct: purchased Calbiochem
Method: The enzymatic reactions contained the following components in a final volume of 100 μL: 20 mM MnCl2, 100 mM sodium cacodylate, pH 6.5, 5 U of pyruvate kinase, 5 U of lactate dehydrogenase, 2 mM PEP, 0.2 mM NADH with 0.4 mU of β1-4GalT, 1 mM βOMeGlcNAc, 25 μM UDP-Gal or 1.0 mU of α1-3GalT, 1 mM LacNAc, 100 μM UDP-Gal and various concentrations of 1-68A or 2-68A in 2.5% DMSO. The reaction mixtures were incubated at 37° C. for 10 min before the reaction was initiated by the addition of UDP-Gal. The change in absorbance was monitored over 20 min at 340 nm.
To determine the selectivity of the compounds among the broader family of UDP-sugar utilizing enzymes, 1-68A and 2-68A were tested against bovine β1-4galactosyltransferase (β1-4GalT) and porcine α1-3galactosyltransferase (α1-3GalT), using a previously reported continuous colorimetric assay. Fitzgerald et al. (1970) Anal. Biochem. 36:43-61. Neither compound was active against β1-4GalT or α1-3GalT at the highest concentration tested (500 μM) (Entries 9 and 10, Table 1).

[2] = target: T2, UDP-GlcNAc/GalNAc C4-epimerase (Homo sapiens, UniProt Q14376); conditions: Winans and Bertozzi (2002); cited from earlier work
T2 sequence (Q14376 1-348): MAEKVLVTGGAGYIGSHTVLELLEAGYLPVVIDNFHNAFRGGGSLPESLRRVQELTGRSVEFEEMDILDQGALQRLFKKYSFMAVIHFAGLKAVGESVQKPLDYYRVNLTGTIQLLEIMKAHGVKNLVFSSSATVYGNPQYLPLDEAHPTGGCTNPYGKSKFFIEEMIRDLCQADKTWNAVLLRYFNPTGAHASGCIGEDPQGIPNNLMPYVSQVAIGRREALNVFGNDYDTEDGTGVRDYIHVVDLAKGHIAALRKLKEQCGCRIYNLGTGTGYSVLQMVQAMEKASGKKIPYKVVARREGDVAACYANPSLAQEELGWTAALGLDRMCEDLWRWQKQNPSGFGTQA

T1 sequence (P50127 whole entry): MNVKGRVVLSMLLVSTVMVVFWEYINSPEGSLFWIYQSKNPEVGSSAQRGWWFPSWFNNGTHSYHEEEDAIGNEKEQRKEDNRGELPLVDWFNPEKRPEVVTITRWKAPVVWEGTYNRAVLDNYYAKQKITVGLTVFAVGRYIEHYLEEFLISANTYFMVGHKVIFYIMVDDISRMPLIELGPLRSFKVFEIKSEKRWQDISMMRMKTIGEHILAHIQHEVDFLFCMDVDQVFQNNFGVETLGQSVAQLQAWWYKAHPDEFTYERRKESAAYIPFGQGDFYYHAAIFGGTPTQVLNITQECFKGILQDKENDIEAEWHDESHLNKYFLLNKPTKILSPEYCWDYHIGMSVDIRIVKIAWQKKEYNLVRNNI

Compound	IC50 [1]	inhibitory activity against α1-3GalT [1]	identified in library screen against UDP-GlcNAc/GalNAc C4-epimerase [2]
O=c1ccn([C@@H]2O[C@H](CON=Cc3ccc(O)c(O)c3O)[C@@H](O)[C@H]2O)c(=O)[nH]1 [1-68A]	> 500 µM	lack of inhibitory activity	not identified
O=C(CON=Cc1ccc(O)c(O)c1O)NC[C@H]1O[C@@H](n2ccc(=O)[nH]c2=O)[C@H](O)[C@@H]1O [2-68A]	> 500 µM	lack of inhibitory activity	not identified
